Reference: patent US9447148B2, “Melanocortin-1 receptor-specific cyclic peptides” (Palatin Technologies, Inc., priority 2009, dated 2016)
Numbered stars: 1 amine (or outer) side, 2 acyl side, 3 side chain; on linkers, the order of the positions; unused ones are H or OH. Bridge positions count the residues as written; N and C are the ends. Square brackets hold non-standard residues; d marks the D form. Peptide text beside a SMILES is read from it. Suc = O=C(CCC(=O)[*:2])[*:1]; Nle = CCCC[C@H](N)C(=O)O; Dab = NCC[C@H](N)C(=O)O

target: hMCR-1 (Homo sapiens (Human), UniProt Q01726); assay: Assay for agonist activity: intracellular cAMP accumulation in HBL human melanoma cells; format: cell-based; settings: HBL cells, maximum efficacy compared to reference agonist NDP-α-MSH
Description: Confluent HBL cells that express hMCR-1 or HEK-293 cells that express recombinant hMCR-4 were detached from culture plates by incubation in enzyme-free cell dissociation buffer. Dispersed cells were suspended in Earle's Balanced Salt Solution containing 10 mM HEPES (pH 7.5), 1 mM MgCl2, 1 mM glutamine, 0.5% albumin and 0.3 mM 3-isobutyl-1-methyl-xanthine (IBMX), a phosphodiesterase inhibitor. The cells were plated in 96-well plates at a density of 0.4×10^5 cells per well for HBL cells and 0.5×10^5 cells per well for HEK-293 cells and pre-incubated for 10 minutes. Cells were exposed for 15 minutes at 37° C. to peptides of the present invention dissolved in DMSO (final DMSO concentration of 1%) at a concentration range of 0.05-5000 nM in a total assay volume of 200 μL. […] Data analysis was performed by nonlinear regression analysis with Graph-Pad Prism® software.
(§1) Peptides of the following structures were synthesized and averaged MCR-1 and MCR-4 Ki values were determined as indicated. […] All results are expressed in nM except for Emax values, which are percentage values. Peptides with the captioned primary sequence were synthesized and purified as described in Section 5 above, with the resulting peptide having the structure depicted.

Sequence of hMCR-1 (Q01726 whole entry): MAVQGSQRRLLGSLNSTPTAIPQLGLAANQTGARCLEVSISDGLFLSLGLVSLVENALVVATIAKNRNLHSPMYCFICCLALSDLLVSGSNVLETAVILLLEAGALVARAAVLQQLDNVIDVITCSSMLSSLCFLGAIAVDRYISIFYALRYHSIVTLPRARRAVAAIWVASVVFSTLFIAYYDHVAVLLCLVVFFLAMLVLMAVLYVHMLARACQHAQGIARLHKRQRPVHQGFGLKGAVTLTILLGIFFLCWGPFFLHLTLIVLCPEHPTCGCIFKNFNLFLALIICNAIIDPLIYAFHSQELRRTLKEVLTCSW

| MC-1 Emax (average; cAMP HBL) | SMILES |
| --- | --- |
| 86% ^ | CCCC[C@H](NC(C)=O)C(=O)N[C@H]1CCC(=O)NCC[C@@H](C(=O)N[C@@H](Cc2c[nH]c3ccccc23)C(N)=O)NC(=O)[C@H](CCCNC(=N)N)NC(=O)[C@@H](Cc2ccccc2)NC(=O)[C@H](C)NC1=O [Example 9.49, Ac-Nle-cyclo(Glu-Ala-D-Phe-Arg-Dab)-Trp-NH2] |
| 59% | CCCC[C@H](NC(C)=O)C(=O)N[C@H]1CCC(=O)NCC[C@@H](C(=O)N[C@@H](Cc2c[nH]c3ccccc23)C(N)=O)NC(=O)CNC(=O)[C@@H](Cc2ccccc2)NC(=O)[C@H](Cc2c[nH]cn2)NC1=O [Example 9.47, Ac-Nle-cyclo(Glu-His-D-Phe-Gly-Dab)-Trp-NH2] (Ac-[Nle]EH[dF]G[Dab]W-NH2; lactam 2-6) |

target: hMCR-4 (Homo sapiens (Human), UniProt P32245); assay: Competitive inhibition binding assay using [I125]-NDP-α-MSH, hMCR-4; settings: membrane homogenates of HEK-293 cells, human recombinant receptor, averaged, read-out: MC-4 Ki (average)
Description: A competitive inhibition binding assay was performed using membrane homogenates prepared from HEK-293 cells that express recombinant hMCR-1a or hMCR-4 (in each instance where the h prefix refers to human), or alternatively membrane homogenates from B16-F10 mouse melanoma cells containing endogenous murine MCR-1. In the examples that follow, all MCR-1 and MCR-4 values are for human recombinant receptors, unless otherwise noted. Assays were performed in 96 well polypropylene round-bottom plates (VWR catalog number 12777-030). […] After incubation for 90 minutes at 37° C., the assay mixture was filtered onto GF/B Unifilter plates (Perkin-Elmer catalog number 6005177) and washed with 3 mL of ice-cold buffer per well. Filters were air dried and 35 μL of scintillation cocktail added to each well. Plates were counted in a Microbeta counter for bound radioactivity. […] Each assay was conducted in duplicate and the actual mean values are described, with results less than 0% reported as 0%. Ki values for peptides of the present invention were determined using Graph-Pad Prism® curve-fitting software.
as §1

Sequence of hMCR-4 (P32245 whole entry): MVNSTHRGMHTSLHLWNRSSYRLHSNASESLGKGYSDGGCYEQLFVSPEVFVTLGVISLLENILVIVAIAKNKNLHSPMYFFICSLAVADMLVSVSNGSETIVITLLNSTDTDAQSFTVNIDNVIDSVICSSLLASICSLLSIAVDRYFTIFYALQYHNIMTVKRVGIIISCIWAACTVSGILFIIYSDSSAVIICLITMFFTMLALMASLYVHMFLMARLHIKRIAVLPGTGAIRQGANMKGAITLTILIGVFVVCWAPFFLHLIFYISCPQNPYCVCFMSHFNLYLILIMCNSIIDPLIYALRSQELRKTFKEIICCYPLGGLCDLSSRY

| SMILES | Ki [nM] |
| --- | --- |
| CCCC[C@H](NC(C)=O)C(=O)N[C@H]1CCC(=O)NCCC[C@@H](C(=O)N[C@@H](Cc2c[nH]c3ccccc23)C(N)=O)NC(=O)[C@H](CCCNC(=N)N)NC(=O)[C@@H](Cc2ccccc2)NC(=O)[C@H](Cc2c[nH]cn2)NC1=O [Example 9.6, Ac-Nle-cyclo(Glu-His-D-Phe-Arg-Orn)-Trp-NH2] | 295 |
| CCCC[C@H](NC(C)=O)C(=O)N[C@H]1CCC(=O)NC[C@@H](C(=O)N[C@@H](Cc2c[nH]c3ccccc23)C(N)=O)NC(=O)[C@H](CCCNC(=N)N)NC(=O)[C@@H](Cc2ccccc2)NC(=O)[C@H](Cc2c[nH]cn2)NC1=O [Example 9.3, Ac-Nle-cyclo(Glu-His-D-Phe-Arg-Dap)-Trp-NH2] | 358 |
| CCCC[C@H](NC(C)=O)C(=O)N[C@H]1CCC(=O)NCC[C@@H](C(N)=O)NC(=O)[C@H](CCCNC(=N)N)NC(=O)[C@@H](Cc2ccccc2)NC(=O)[C@@H]2CCCN2C1=O [Example 9.65, Ac-Nle-cyclo(Glu-Pro-D-Phe-Arg-Dab)-NH2] | 10000 |
| CCCC[C@H](NC(C)=O)C(=O)N[C@H]1CCC(=O)NCCCC[C@@H](C(=O)N[C@@H](Cc2c[nH]c3ccccc23)C(N)=O)NC(=O)[C@H](CCCNC(=N)N)NC(=O)[C@@H](Cc2ccccc2)NC(=O)[C@H](Cc2c[nH]cn2)NC1=O [Example 9.1, Ac-Nle-cyclo(Glu-His-D-Phe-Arg-Lys)-Trp-NH2] | 45 |
| CCCC[C@H](NC(C)=O)C(=O)N[C@H]1CCC(=O)NCC[C@@H](C(=O)N[C@@H](Cc2c[nH]c3ccccc23)C(N)=O)NC(=O)[C@H](CCCNC(=N)N)NC(=O)[C@@H](Cc2ccccc2)NC(=O)[C@H](C)NC1=O [Example 9.36, Ac-Nle-cyclo(Glu-Ala-D-Phe-Arg-Dab)-Trp-NH2] | 455 |
| CC(=O)N[C@H](Cc1ccccc1)C(=O)N[C@H]1CCC(=O)NCC[C@@H](C(=O)N[C@@H](Cc2c[nH]c3ccccc23)C(N)=O)NC(=O)[C@H](CCCNC(=N)N)NC(=O)[C@@H](Cc2ccccc2)NC(=O)[C@H](Cc2c[nH]cn2)NC1=O [Example 9.12, Ac-D-Phe-cyclo(Glu-His-D-Phe-Arg-Dab)-Trp-NH2] | 535 |
| CCCC[C@H](NC(C)=O)C(=O)N[C@H]1CNC(=O)CCC(=O)NC[C@@H](C(=O)N[C@@H](Cc2c[nH]c3ccccc23)C(N)=O)NC(=O)[C@H](CCCNC(=N)N)NC(=O)[C@@H](Cc2ccccc2)NC(=O)[C@H](Cc2c[nH]cn2)NC1=O [Example 9.28] | 680 |
| CCCC[C@H](NC(C)=O)C(=O)N[C@H]1CCNC(=O)CCC(=O)NC[C@@H](C(=O)N[C@@H](Cc2c[nH]c3ccccc23)C(N)=O)NC(=O)[C@H](CCCNC(=N)N)NC(=O)[C@@H](Cc2ccccc2)NC(=O)[C@H](Cc2c[nH]cn2)NC1=O [Example 9.29] | 325 |
| N=C(N)NCCC[C@@H]1NC(=O)[C@@H](Cc2ccccc2)NC(=O)[C@H](Cc2c[nH]cn2)NC(=O)CCC(=O)NCC[C@@H](C(=O)N[C@@H](Cc2c[nH]c3ccccc23)C(N)=O)NC1=O [Example 9.14, cyclo(Suc-His-Phe-Arg-Dab)-Trp-NH2] (H[dF]R[Dab]W-NH2; linker N-4 via Suc) | 10000 |
| CCCC[C@H](NC(C)=O)C(=O)N[C@H]1CCC(=O)NCC[C@@H](C(=O)N[C@@H](Cc2c[nH]c3ccccc23)C(N)=O)NC(=O)[C@H](CCCNC(=N)N)NC(=O)[C@H](Cc2ccccc2)NC(=O)[C@H](Cc2c[nH]cn2)NC1=O [Example 9.8, Ac-Nle-cyclo(Glu-His-Phe-Arg-Dab)-Trp-NH2] | 10000 |
| CCCC[C@H](NC(C)=O)C(=O)N[C@H]1CCNC(=O)CCC(=O)NCC[C@@H](C(=O)N[C@@H](Cc2c[nH]c3ccccc23)C(N)=O)NC(=O)[C@H](CCCNC(=N)N)NC(=O)[C@@H](Cc2ccccc2)NC(=O)[C@H](Cc2c[nH]cn2)NC1=O [Example 9.27] | 380 |

Continued, values first:

| Ki [nM] | SMILES |
| --- | --- |
| 110 | CCCCCC(=O)N[C@H]1CCC(=O)NCC[C@@H](C(=O)N[C@@H](Cc2c[nH]c3ccccc23)C(N)=O)NC(=O)[C@H](CCCNC(=N)N)NC(=O)[C@@H](Cc2ccccc2)NC(=O)[C@H](Cc2c[nH]cn2)NC1=O [Example 9.17, CH3—(CH2)4—C(═O)-cyclo(Glu-His-D-Phe-Arg-Dab)-Trp-NH2] |
| 0.095 | CCCC[C@H](NC(C)=O)C(=O)N[C@H]1CCC(=O)NCC[C@@H](C(=O)N[C@H](Cc2ccc3ccccc3c2)C(N)=O)NC(=O)[C@H](CCCNC(=N)N)NC(=O)[C@@H](Cc2ccccc2)NC(=O)[C@H](Cc2c[nH]cn2)NC1=O [Example 9.11, Ac-Nle-cyclo(Glu-His-D-Phe-Arg-Dab)-D-Nal 2-NH2] |
| 3 | CCCC[C@H](NC(C)=O)C(=O)N[C@H]1CCC(=O)NCC[C@@H](C(=O)N[C@@H](Cc2ccc3ccccc3c2)C(N)=O)NC(=O)[C@H](CCCNC(=N)N)NC(=O)[C@@H](Cc2ccccc2)NC(=O)[C@H](Cc2c[nH]cn2)NC1=O [Example 9.10, Ac-Nle-cyclo(Glu-His-D-Phe-Arg-Dab)-Nal 2-NH2] |
| 98 | CCCC[C@H](NC(C)=O)C(=O)N[C@H]1CCC(=O)NCC[C@@H](C(=O)N[C@@H](Cc2c[nH]c3ccccc23)C(N)=O)NC(=O)[C@H](CCCNC(=N)N)NC(=O)[C@@H](Cc2ccccc2)NC(=O)[C@H](CCCNC(N)=O)NC1=O [Example 9.38, Ac-Nle-cyclo(Glu-Cit-D-Phe-Arg-Dab)-Trp-NH2] |
| 0.75 | CCCC[C@H](NC(C)=O)C(=O)N[C@H]1CCC(=O)NCC[C@@H](C(=O)N[C@@H](Cc2cccc3ccccc23)C(N)=O)NC(=O)[C@H](CCCNC(=N)N)NC(=O)[C@@H](Cc2ccccc2)NC(=O)[C@H](Cc2c[nH]cn2)NC1=O [Example 9.30, Ac-Nle-cyclo(Glu-His-D-Phe-Arg-Dab)-Nal 1-NH2] |
| 98 | CCCC[C@H](NC(C)=O)C(=O)N[C@H]1CCC(=O)NCC[C@@H](C(=O)N[C@@H](Cc2c[nH]c3ccccc23)C(N)=O)NC(=O)[C@H](CCCNC(=N)N)NC(=O)[C@@H](Cc2ccccc2)NC(=O)[C@H](CCN)NC1=O [Example 9.41, Ac-Nle-cyclo(Glu-Dab-D-Phe-Arg-Dab)-Trp-NH2] |
| 110 | CCCC[C@H](NC(C)=O)C(=O)N[C@H]1CCC(=O)NCC[C@@H](C(=O)N[C@@H](Cc2c[nH]c3ccccc23)C(N)=O)NC(=O)[C@H](CCCNC(=N)N)NC(=O)[C@@H](Cc2ccccc2)NC(=O)[C@H](Cc2c[nH]cn2)NC1=O [Example 9.2, Ac-Nle-cyclo(Glu-His-D-Phe-Arg-Dab)-Trp-NH2] |
| 45 | CCCC[C@H](NC(C)=O)C(=O)N[C@H]1CCC(=O)NCC[C@@H](C(=O)N[C@@H](Cc2c[nH]c3ccccc23)C(N)=O)NC(=O)[C@H](CCCNC(=N)N)NC(=O)[C@@H](Cc2ccccc2)NC(=O)[C@H](CCCN)NC1=O [Example 9.42, Ac-Nle-cyclo(Glu-Orn-D-Phe-Arg-Dab)-Trp-NH2] |
| 33 | CCCC[C@H](NC(C)=O)C(=O)N[C@H]1CCC(=O)NCC[C@@H](C(=O)N[C@H](Cc2c[nH]c3ccccc23)C(N)=O)NC(=O)[C@H](CCCNC(=N)N)NC(=O)[C@@H](Cc2ccccc2)NC(=O)[C@H](Cc2c[nH]cn2)NC1=O [Example 9.7, Ac-Nle-cyclo(Glu-His-D-Phe-Arg-Dab)-D-Trp-NH2] |
| 2 | CCCC[C@H](NC(C)=O)C(=O)N[C@H]1CCC(=O)NCC[C@@H](C(=O)N[C@H](Cc2cccc3ccccc23)C(N)=O)NC(=O)[C@H](CCCNC(=N)N)NC(=O)[C@@H](Cc2ccccc2)NC(=O)[C@H](Cc2c[nH]cn2)NC1=O [Example 9.9, Ac-Nle-cyclo(Glu-His-D-Phe-Arg-Dab)-D-Nal 1-NH2] |
| 95 | CCCC[C@H](NC(C)=O)C(=O)N[C@H]1CCC(=O)NCC[C@@H](C(=O)N[C@@H](Cc2c[nH]c3ccccc23)C(N)=O)NC(=O)[C@H](CCCNC(=N)N)NC(=O)[C@@H](Cc2ccccc2)NC(=O)[C@H](CCCCN)NC1=O [Example 9.40, Ac-Nle-cyclo(Glu-Lys-D-Phe-Arg-Dab)-Trp-NH2] |
| 20 | CCCC[C@H](NC(C)=O)C(=O)N[C@H]1CCC(=O)NCC[C@@H](C(=O)N[C@@H](Cc2c[nH]c3ccccc23)C(N)=O)NC(=O)[C@H](CCCNC(=N)N)NC(=O)[C@@H](Cc2ccccc2)NC(=O)[C@H](CCCNC(=N)N)NC1=O [Example 9.37, Ac-Nle-cyclo(Glu-Arg-D-Phe-Arg-Dab)-Trp-NH2] |
